Experimental data published in PMC7835894 (Molecules, 2021).

Key:
Type in all cases: cell-based, human
cleaved Cas-3 = experiment: Western blotting in Caco-2 cells; settings: Caco-2, IC50 dose, 24 h, normalized to β-actin
Experimental: (§1) The expression of Bax, Bcl-2, Cyt-C, cleaved cas-3 and p53 proteins in Caco-2 cells was determined using Western blot procedure according to the methods mentioned previously. […] Then, cells were lysed in 150 µL pre-cold lysis buffer [Tris-Base “10 mM”, NaCl “100 mM”, Ethylene glycol bis (2-aminoethyl) tetraacetic acid (EGTA) “20 mM”, ethylenediaminetetraacetic acid (EDTA) “25 mM”, 1% (v/v) NP-40, and 1% (v/v) Triton X-100; pH 7.4] immediately supplemented with 1:450 protease and phosphatase inhibitors cocktail (Sigma-Aldrich). Caco-2 cells were immediately collected by cell scraper, sonicated, and centrifuged at 12,000 rpm for 15 min. Total proteins in the produced supernatant were determined colorimetrically using the Pierce™ 660 nm Assay (Thermo Scientific, Rockford, IL, USA). Equal amounts (30 µg) of protein were mixed with sodium dodecyl sulfate (SDS)-loading buffer containing Tris-HCl, dithiothreitol (DTT), SDS, glycerol, and Bromophenol blue. The protein samples were then denatured by boiling for 5 min, allowed to cool on ice for 10 min and separated by SDS-polyacrylamide gel electrophoresis (Cleaver Scientific Ltd., Rugby, Warwickshire, UK), and transferred onto Polyvinylidene Difluoride (PVDF) membranes for 30 min using Trans-Blot® SD semi-dry transfer cell (Biorad). Membranes were then blocked with 5% (w/v) blotting-grade dry milk (Biorad) in Tris-buffered saline-Tween-20 (TBS-T), washed and incubated with antibodies against Bax, Bcl-2, cleaved caspase-3 (1:100–1:2000, Cell Signaling Technology), cytochrome c (1:500, Santa Cruz Biotechnology), p53 (1:1500, Abcam) and β-actin (1:2500, Sigma-Aldrich) for 16–17 h at 4 °C in a humidified chamber. The blots were washed, incubated at RT with matched horseradish peroxidase (HRP)-linked secondary antibodies (Dako, Denmark) for 1.5 h, and the bands were visualized with chemiluminescence Western Lightning ECL (Perkin Elmer, Waltham, MA) for 1 min in Chemi-Doc imager (Biorad, Hercules, CA, USA) and finally analyzed with Bio-Rad Image Lab software with normalization to β-actin.

Caco-2 cells = experiment: Isobologram analysis of retinoid + 5-FU combinations (MTT); settings: Caco-2, combination with 5-FU; for CI (combination index): CI < 1 is synergy
Description: This mathematical model allows the determination of CI (combination index) values based on the Equation (1):CI = d1/D1 + d2/D2 (1) where d1 and d2 are the doses of drug 1 and drug 2 that, when given in combination, produce a specific response. D1 and D2 are the doses of drug 1 and drug 2, that, when given individually, produce the same response. Also, CI < 1 is synergy, CI = 1 is additivity and CI > 1 is antagonism
DRI < 1 indicates unfavorable dose reduction and ineffective combination.

Cyt-C = experiment: Western blotting in Caco-2 cells; settings: Caco-2, IC50 dose, 24 h, normalized to β-actin
Experimental: as §1

p53 = experiment: Western blotting in Caco-2 cells; settings: Caco-2, IC50 dose, 24 h, normalized to β-actin
Experimental: as §1

Compound | activated (cleaved) Cas-3 protein level (cleaved Cas-3) | DRI (dose reduction index) (Caco-2 cells) | CI (combination index) (Caco-2 cells) | Cyt-C protein level (Cyt-C) | p53 protein level (p53)
CC1=C(/C=C/C(C)=C/C=C/C(C)=C/C(=O)O)C(C)(C)CCC1 [ATRA, All-trans retinoic acid, reference compound] | increment in the level of activated Cas-3 |  |  |  | 
CC1(C)CCC(C)(C)c2cc(C#Cc3cccc(C(=O)O)c3)ccc21 [EC19, 3-(5,5,8,8-tetramethyl-5,6,7,8-tetrahydronaphthalen-2-ylethynyl) benzoic acid] | increment in the level of activated Cas-3 | 4.5 ± 0.6 | 0.46 ± 0.06 | significantly increased | significantly increased
CC1(C)CCC(C)(C)c2cc(C#Cc3ccc(C(=O)O)cc3)ccc21 [EC23, 4-(5,5,8,8-tetramethyl-5,6,7,8-tetrahydronaphthalen-2-ylethynyl) benzoic acid] |  | 7.5 ± 0.8 | 0.27 ± 0.03 |  | 
